Assay results published in article PMC5874716, “Antimicrobial Peptides for Topical Treatment of Osteomyelitis and Implant-Related Infections: Study in the Spongy Bone” (Pharmaceuticals, 2018).
Structures can show the parent of a compound that is named as a salt. Non-standard residues stand in square brackets, D forms with d. Residues, ends and D or L forms follow the SMILES beside them. βAla = NCCC(=O)O

Columns and labels:
C. tropicalis ATCC 750 = assay: Biofilm formation on bone cement (Palacos r) model implants in infected femur head; parameters: species or system Candida tropicalis; details: cements implanted inside infected holes; 2 days; single experiment, / = two implants
From the text: (§1) The poly(methyl methacrylate)-based bone cement with or without AMPs was implanted either inside infected holes or inside non-infected holes. In the latter case, the microbes infiltrated towards the implant from a hole made between them at roughly equal distance from each (Figure 3). This would simulate the authentic situation in which the pathogens can infect an orthopaedic implant by spreading through the bloodstream or contiguously from areas of infection. We evaluated the experiments on the basis of the amounts of microbes released from the biofilms supposedly formed on the surfaces of the implants that were removed from the infected bone samples.
(§2) The bone samples with bored holes inside were prepared and handled as above. The bone cement (Palacos®r, Hereaus Medical GmbH, Wehrheim, Germany) with AMP incorporated was prepared by swift and thorough mixing of the polymer powder component (poly-methylacrylate, methyl methacrylate, 125 mg) and AMP (10 mg) or antibiotic (10 mg) with the liquid monomer (methyl methacrylate, N,N-dimethyl-p-toluidine, hydroquinone and colorant E141, 70 μL). The resulting elastic paste was pressed using a 2 mL plastic syringe into two bored holes, where it polymerized and solidified. The paste without peptide for filling of the remaining two holes was prepared similarly by mixing the powder component (125 mg) and liquid component (68 μL). […]

[1] = tested on: P. aeruginosa clinical isolate from Liberec Regional Hospital; assay: microbe, parasite or virus in culture; assay type: cell-based
Procedure: (§3) Femur heads (ca. 70 pieces) taken from patients during hip replacement surgery were periodically purchased in the period between 2014–2017 as discarded from the bone tissue bank at University Hospital in Motol, Prague, Czech Republic. The reason for the replacements by artificial prosthesis was the worn out cartilage on the surface of their heads. Bone samples were stored at −80 °C under standard conditions of certified tissue banks. In the laboratory, they were kept at +5 °C overnight and then at room temperature for several hours before they could be used for the experiments. The experiments with this material were approved by the Ethics Committee for Multi-Centric Clinical Trials of the University Hospital Motol, Reference No: EK-655/15. Methicillin-resistant S. aureus (MRSA 6271) ATCC 43300 and P. aeruginosa (5482) ATCC 27853 were purchased from the Czech National Collection of Type Cultures, National Institute of Public Health, Prague, Czech Republic. Methicillin-resistant S. aureus (MRSA (L)) and P. aeruginosa (L) were obtained as multi-resistant clinical isolates from Liberec Regional Hospital, Liberec, Czech Republic. Methicillin-resistant S. aureus (MRSA (M)), E. faecalis and S. epidermidis were obtained as clinical isolates from University Hospital in Motol, Prague. Candida albicans (F7-39/IDE99) came from the mycological collection of the Faculty of Medicine, Palacky University, Olomouc, Czech Republic. C. albicans ATCC MYA-2876, C. tropicalis ATCC 750 and C. glabrata DSY565 were kindly provided by Dr. Hana Sychrová from the Institute of Physiology, Academy of Sciences of the Czech Republic, Prague. Vancomycin hydrochloride, gentamicin sulfate, ceftriaxone disodium salt, amphotericin B, fluconazole, and clotrimazole were obtained from Sigma-Aldrich, Prague, Czech Republic.
(§4) MIC values for peptides were established by observing growth of treated bacteria in HONEYCOMB 100-well microtiter plates (Helsinki, Finland) using a Bioscreen C instrument (Oy Growth Curves, Helsinki, Finland) as previously described. Haemolytic activity of peptides expressed as the concentration of a peptide required for lysis of 50% of human erythrocytes in the assay (LC50) was measured using a Tecan infinite M200 PRO reader (Tecan Austria GmbH, Grödig, Austria). Blood samples for determining haemolytic activity were obtained from healthy volunteers.

[2] = tested on: MRSA clinical isolate from Liberec Regional Hospital (MRSA (L)); assay: microbe, parasite or virus in culture; assay type: cell-based
Procedure: as §3, §4

[3] = tested on: P. aeruginosa (5482) ATCC 27853; assay: microbe, parasite or virus in culture; assay type: cell-based
Procedure: as §3, §4

[4] = tested on: MRSA clinical isolate from University Hospital in Motol (MRSA (M)); assay: microbe, parasite or virus in culture; assay type: cell-based
Procedure: as §3, §4

[5] = tested on: S. epidermidis clinical isolate (Motol); assay: microbe, parasite or virus in culture; assay type: cell-based
Procedure: as §3, §4

MRSA 6271 (ATCC 43300) = assay: microbe, parasite or virus in culture; assay type: cell-based
Procedure: as §3, §4

[6] = tested on: E. faecalis clinical isolate (Motol); assay: microbe, parasite or virus in culture; assay type: cell-based
Procedure: as §3, §4

E. faecalis = assay: Biofilm formation on bone cement (Palacos r) model implants in infected femur head; parameters: species or system Enterococcus faecalis; details: cements implanted inside infected holes; 2 days; single experiment
From the text: as §1, §2

[7] = tested on: MRSA clinical isolate from University Hospital in Motol (MRSA (M)); assay: as above; parameters: species or system Staphylococcus aureus; details: cements implanted inside infected holes; Palacos r with peptide or antibiotic; 2 days; single experiment, / = two implants
From the text: as §1, §2

Candida albicans = assay type: cell-based; details: Bioscreen C; at least three times in duplicates
Procedure: as §3, §4

P. aeruginosa 5482 = assay: Experimental model of bone infection (human femur head, ChronOS Inject carrier); parameters: species or system Pseudomonas aeruginosa; details: ChronOS Inject 200 mg blended with 10 mg peptide; 2 days at room temperature; single experiment on one femoral head
Procedure: We usually drilled three to four holes into the spongy part of each bone sample (as space allowed) and then filled the holes with the suspension of microbes (Figure 1a). The next day, the foci of the infection set up in the holes were treated (i) with carrier alone as a control, (ii) with carrier blended with AMP, or (iii) in some cases with a carrier blended with an antibiotic for comparison (Figure 1b). The results of infection eradication were evaluated after two days by counting the bacterial colonies (Figures S1–S3 as illustrative examples) found in the swab taken from each hole after the fillings were removed (Figure 1c).
Three to four holes ca 4 mm in diameter and 8 mm deep were drilled using a surgical spoon at the side of the resection into the spongy part of the femur head. This bone was placed into a beaker cushioned with sterile gauze, which was then drenched with sterile physiological solution. The suspension of selected bacteria (S. aureus, S. epidermidis, P. aeruginosa) in the concentration of 10^9 colony forming units (CFU)/mL in Luria Bertani (LB) medium and E. faecalis in brain-heart infusion (BHI) medium was consecutively infused into each hole in the bone while taking care not to overfill the holes (Figure 1a). […] Following overnight incubation, the numbers of bacterial colonies were counted. The bacterial load was expressed as CFU per hole. […]

human erythrocytes = assay: Haemolysis assay; assay type: cell-based; details: concentration causing lysis of 50% of human red blood cells; at least three times in duplicates
Procedure: as §4

[8] = clinical isolate Liberec, Bioscreen C, at least three times in duplicates
[9] = clinical isolate Motol, Bioscreen C, at least three times in duplicates

Q: `C[C@@H]1[C@H](O)[C@@H](C)/C=C/C=C/C=C/C=C/C=C/C=C/C=C/[C@H](O[C@@H]2O[C@H](C)[C@@H](O)[C@H](N)[C@@H]2O)C[C@@H]2O[C@](O)(C[C@@H](O)C[C@@H](O)[C@H](O)CC[C@@H](O)C[C@@H](O)CC(=O)O[C@H]1C)C[C@H](O)[C@H]2C(=O)O` [Amphotericin B, amphotericin B] was tested. Which “CFU/Implant, * C. tropicalis” value (C. tropicalis ATCC 750) did it give?
A: 1.3 × 10^6 CFU/implant

Q: How did the MIC ([1]; Pseudomonas aeruginosa, read-out: Antimicrobial Activity MIC, P. a. a) turn out when `CN[C@H](CC(C)C)C(=O)N[C@H]1C(=O)N[C@@H](CC(N)=O)C(=O)N[C@H]2C(=O)N[C@H]3C(=O)N[C@H](C(=O)N[C@H](C(=O)O)c4cc(O)cc(O)c4-c4cc3ccc4O)[C@H](O)c3ccc(c(Cl)c3)Oc3cc2cc(c3O[C@@H]2O[C@H](CO)[C@@H](O)[C@H](O)[C@H]2O[C@H]2C[C@](C)(N)[C@H](O)[C@H](C)O2)Oc2ccc(cc2Cl)[C@H]1O` [Vancomycin, Vancomycin hydrochloride, reference compound] was run?
A: > 320 µM

Q: And the MIC ([2]; Staphylococcus aureus, MRSA, read-out: Antimicrobial Activity MIC, MRSA a)?
A: 1.1 µM

Q: And the MIC ([3]; Pseudomonas aeruginosa, ATCC27853, read-out: Antimicrobial Activity MIC, P. a. 5482)?
A: > 200 µM

Q: And the MIC ([4]; Staphylococcus aureus, MRSA, read-out: Antimicrobial Activity MIC, MRSA b)?
A: 1.1 µM

Q: And the MIC ([5]; Staphylococcus epidermidis, read-out: Antimicrobial Activity MIC, S. e. b)?
A: 1.5 µM

Q: And the MIC (MRSA 6271 (ATCC 43300); Staphylococcus aureus, read-out: Antimicrobial Activity MIC, MRSA 6271)?
A: 0.9 µM

Q: What about the MIC ([6]; Enterococcus faecalis, read-out: Antimicrobial Activity MIC, E. f. b) of the same molecule?
A: 1.3 µM

Q: What about the “CFU/Implant, *E. f.” value (E. faecalis) of the same molecule?
A: 4.0 × 10^6 CFU/implant

Q: And the “CFU/Implant, *MRSA b” value [7]?
A: 4.0 × 10^6 CFU/implant

Q: How did the “Antimicrobial Activity MIC, C. a.” value (Candida albicans) turn out when `CC[C@H](C)[C@H](NC(=O)[C@H](CCCCN)NC(=O)[C@H](CCCCN)NC(=O)[C@H](CC(C)C)NC(=O)[C@H](CC(C)C)NC(=O)[C@H](CCCCN)NC(=O)[C@H](CCSC)NC(=O)[C@H](Cc1c[nH]c2ccccc12)NC(=O)[C@H](CCCCN)NC(=O)CCN)C(=O)N[C@@H](CC(C)C)C(=O)N[C@@H](CCCCN)C(N)=O` [XI] (H-[βAla]KWMKLLKKILK-NH2; N-terminus assumed) was run?
A: 11.3 µM

Q: And the “Antimicrobial Activity MIC, P. a. a” value [1, 8]?
A: 7.0 µM

Q: What about the “Antimicrobial Activity MIC, MRSA a” value [2, 8] of the same molecule?
A: 5.7 µM

Q: What about the “Antimicrobial Activity MIC, P. a. 5482” value ([3]; Bioscreen C, at least three times in duplicates) of the same molecule?
A: 2.8 µM

Q: What about the “Antimicrobial Activity MIC, MRSA b” value [4, 9] of the same molecule?
A: 10.0 µM

Q: What about the “Antimicrobial Activity MIC, S. e. b” value [5, 9] of the same molecule?
A: 2.8 µM

Q: And the “Antimicrobial Activity MIC, MRSA 6271” value (MRSA 6271 (ATCC 43300); growth in 100-well microtiter plates, Bioscreen C, tested at least three times in duplicates)?
A: 11.3 µM

Q: What about the “Antimicrobial Activity MIC, E. f. b” value [6, 9] of the same molecule?
A: 59.0 µM

Q: And the “Colony Forming Units (CFU)/Hole, P. a. 5482” value (P. aeruginosa 5482)?
A: 2.0 × 10^5 CFU/hole

Q: What about the “Haemolytic Activity LC50” value (human erythrocytes) of the same molecule?
A: 270 µM
